PubChem BioAssay (NCI)
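Each compound was tested at five concentrations against cells in 96-well plates for 48 hours. GI50 marks 50% less growth. TGI denotes the concentration required for complete inhibition of growth.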

Assays:
Assay in all cases: NCI anticancer screen, dose series, 48 h
HL-60(TB) leukemia = system: HL-60(TB) leukemia
SF-539 CNS = system: SF-539 CNS
HT29 colon = system: HT29 colon
SW-620 colon = system: SW-620 colon
TK-10 renal = system: TK-10 renal
SK-OV-3 ovarian = system: SK-OV-3 ovarian
DU-145 prostate = system: DU-145 prostate
SK-MEL-28 melanoma = system: SK-MEL-28 melanoma
SK-MEL-5 melanoma = system: SK-MEL-5 melanoma
K-562 leukemia = system: K-562 leukemia
SN12C renal = system: SN12C renal
KM12 colon = system: KM12 colon
SNB-75 CNS = system: SNB-75 CNS
IGROV1 ovarian = system: IGROV1 ovarian
RPMI-8226 leukemia = system: RPMI-8226 leukemia
HOP-62 NSCLC = system: HOP-62 NSCLC
U251 CNS = system: U251 CNS
786-0 renal = system: 786-0 renal
NCI-H226 lung = system: NCI-H226 lung
HS 578T breast = system: HS 578T breast
MDA-MB-231 breast = system: MDA-MB-231 breast
T-47D breast = system: T-47D breast
SF-295 CNS = system: SF-295 CNS
UACC-62 melanoma = system: UACC-62 melanoma
HCT-116 colon = system: HCT-116 colon
NCI-H23 lung = system: NCI-H23 lung
M14 melanoma = system: M14 melanoma
HOP-92 NSCLC = system: HOP-92 NSCLC
BT-549 breast = system: BT-549 breast
ACHN renal = system: ACHN renal
A549 NSCLC = system: A549 NSCLC
CCRF-CEM leukemia = system: CCRF-CEM leukemia
A498 renal = system: A498 renal
MDA-MB-435 = system: MDA-MB-435
OVCAR-5 ovarian = system: OVCAR-5 ovarian
NCI-H522 lung = system: NCI-H522 lung
UO-31 renal = system: UO-31 renal
MALME-3M melanoma = system: MALME-3M melanoma
NCI-H460 lung = system: NCI-H460 lung
SNB-19 CNS = system: SNB-19 CNS
PC-3 prostate = system: PC-3 prostate
NCI/ADR-RES ovarian = system: NCI/ADR-RES ovarian
RXF 393 renal = system: RXF 393 renal
COLO 205 colon = system: COLO 205 colon
OVCAR-8 ovarian = system: OVCAR-8 ovarian
HCT-15 colon = system: HCT-15 colon
SK-MEL-2 melanoma = system: SK-MEL-2 melanoma
SF-268 CNS = system: SF-268 CNS
OVCAR-3 ovarian = system: OVCAR-3 ovarian
SR leukemia = system: SR leukemia
OVCAR-4 ovarian = system: OVCAR-4 ovarian
UACC-257 melanoma = system: UACC-257 melanoma
EKVX NSCLC = system: EKVX NSCLC
CAKI-1 renal = system: CAKI-1 renal
LOX IMVI melanoma = system: LOX IMVI melanoma
MCF7 breast = system: MCF7 breast
MOLT-4 leukemia = system: MOLT-4 leukemia
HCC-2998 colon = system: HCC-2998 colon

CN1/C(=C\C=C\C2=[N+](C)c3ccccc3C2(C)C)C(C)(C)c2ccccc21
GI50 (HL-60(TB) leukemia): 27.1 nM | TGI (HL-60(TB) leukemia): 217 nM | GI50 (SF-539 CNS): 224 nM | TGI (SF-539 CNS): 5910 nM | GI50 (HT29 colon): 44.4 nM | TGI (HT29 colon): 1490 nM | GI50 (SW-620 colon): 136 nM | TGI (SW-620 colon): 3790 nM | GI50 (TK-10 renal): 560 nM | TGI (TK-10 renal): 14800 nM | GI50 (SK-OV-3 ovarian): 152 nM | TGI (SK-OV-3 ovarian): 638 nM | GI50 (DU-145 prostate): 105 nM | TGI (DU-145 prostate): 12100 nM | GI50 (SK-MEL-28 melanoma): 412 nM | TGI (SK-MEL-28 melanoma): 2840 nM | GI50 (SK-MEL-5 melanoma): 32.2 nM | TGI (SK-MEL-5 melanoma): 151 nM | GI50 (K-562 leukemia): < 15.6 nM | TGI (K-562 leukemia): 1390 nM | GI50 (SN12C renal): 155 nM | TGI (SN12C renal): 1110 nM | GI50 (KM12 colon): 36.3 nM | TGI (KM12 colon): 932 nM | GI50 (SNB-75 CNS): 271 nM | TGI (SNB-75 CNS): 1880 nM | GI50 (IGROV1 ovarian): 116 nM | TGI (IGROV1 ovarian): 1740 nM | GI50 (RPMI-8226 leukemia): 11.9 nM | TGI (RPMI-8226 leukemia): 1330 nM | GI50 (HOP-62 NSCLC): 258 nM | TGI (HOP-62 NSCLC): 7370 nM | GI50 (U251 CNS): 36.9 nM | TGI (U251 CNS): 5210 nM | GI50 (786-0 renal): 251 nM | TGI (786-0 renal): 5440 nM | GI50 (NCI-H226 lung): 103 nM | TGI (NCI-H226 lung): 2390 nM | GI50 (HS 578T breast): 216 nM | TGI (HS 578T breast): 4450 nM | GI50 (MDA-MB-231 breast): 248 nM | TGI (MDA-MB-231 breast): 1580 nM | GI50 (T-47D breast): 17.9 nM | TGI (T-47D breast): 1270 nM | GI50 (SF-295 CNS): 33.6 nM | TGI (SF-295 CNS): 1270 nM | GI50 (UACC-62 melanoma): 124 nM | TGI (UACC-62 melanoma): 1450 nM | GI50 (HCT-116 colon): 30.3 nM | TGI (HCT-116 colon): 1110 nM | GI50 (NCI-H23 lung): 18.9 nM | TGI (NCI-H23 lung): 529 nM | GI50 (M14 melanoma): 223 nM | TGI (M14 melanoma): 1310 nM | GI50 (HOP-92 NSCLC): 128 nM | TGI (HOP-92 NSCLC): 580 nM | GI50 (BT-549 breast): 90.3 nM | TGI (BT-549 breast): 1640 nM | GI50 (ACHN renal): 268 nM | TGI (ACHN renal): 3150 nM | GI50 (A549 NSCLC): 41.3 nM | TGI (A549 NSCLC): 13500 nM | GI50 (CCRF-CEM leukemia): 176 nM | TGI (CCRF-CEM leukemia): 12600 nM | GI50 (A498 renal): 55.6 nM | TGI (A498 renal): 979 nM | GI50 (MDA-MB-435): 73.9 nM | TGI (MDA-MB-435): 936 nM | GI50 (OVCAR-5 ovarian): 370 nM | TGI (OVCAR-5 ovarian): 15500 nM | GI50 (NCI-H522 lung): 78.2 nM | TGI (NCI-H522 lung): 10200 nM | GI50 (UO-31 renal): 229 nM | TGI (UO-31 renal): 3230 nM | GI50 (MALME-3M melanoma): 93.6 nM | TGI (MALME-3M melanoma): 818 nM | GI50 (NCI-H460 lung): 54.1 nM | TGI (NCI-H460 lung): 922 nM | GI50 (SNB-19 CNS): 67 nM | TGI (SNB-19 CNS): 12000 nM | GI50 (PC-3 prostate): 45.5 nM | TGI (PC-3 prostate): 5970 nM | GI50 (NCI/ADR-RES ovarian): 1290 nM | TGI (NCI/ADR-RES ovarian): 4970 nM | GI50 (RXF 393 renal): 216 nM | TGI (RXF 393 renal): 1130 nM | GI50 (COLO 205 colon): 45.7 nM | TGI (COLO 205 colon): 257 nM | GI50 (OVCAR-8 ovarian): 101 nM | TGI (OVCAR-8 ovarian): 7520 nM | GI50 (HCT-15 colon): 387 nM | TGI (HCT-15 colon): 7850 nM | GI50 (SK-MEL-2 melanoma): 212 nM | TGI (SK-MEL-2 melanoma): 1140 nM | GI50 (SF-268 CNS): 274 nM | TGI (SF-268 CNS): 13000 nM | GI50 (OVCAR-3 ovarian): 51.4 nM | TGI (OVCAR-3 ovarian): 948 nM | GI50 (SR leukemia): 194 nM | TGI (SR leukemia): 4440 nM | GI50 (OVCAR-4 ovarian): 92.2 nM | TGI (OVCAR-4 ovarian): 5210 nM | GI50 (UACC-257 melanoma): 38.6 nM | TGI (UACC-257 melanoma): 452 nM | GI50 (EKVX NSCLC): 29.7 nM | TGI (EKVX NSCLC): 7300 nM | GI50 (CAKI-1 renal): 550 nM | TGI (CAKI-1 renal): 5040 nM | GI50 (LOX IMVI melanoma): 44.5 nM | TGI (LOX IMVI melanoma): 796 nM | GI50 (MCF7 breast): 127 nM | TGI (MCF7 breast): 1180 nM | GI50 (MOLT-4 leukemia): 146 nM | TGI (MOLT-4 leukemia): 1870 nM | GI50 (HCC-2998 colon): 41 nM | TGI (HCC-2998 colon): 1250 nM
